In patent US7351733B2, “Tetrahydrocarbazole derivatives and their pharmaceutical use” (SmithKline Beecham Corporation, priority 2003, dated 2008):
Counter-ions that a name gives are not always drawn. Like-named read-outs stand apart in the source and are kept apart here.

System: episomal HPV-16 DNA in W12-20850 cells
Assay: W-12 cellular assay (episomal HPV-16 DNA, hybrid capture)
Type: cell-based, HPV16
[1] = Human papillomavirus 16, W12-20850, 96 h, read-out: W-12 (nM)
[2] = Human papillomavirus 16, 96 h, W12-20850 cells, four days incubation, episomal HPV-16 DNA quantified by hybrid capture, inhibition relative to untreated control cells, read-out: W-12

SMILES | IC50 [1] | IC50 [2]
Cc1cc(C)nc(NC2CCCc3c2[nH]c2ccc(Br)cc32)n1 (stereo not drawn) [Example 32, 6-Bromo-N-(4,6-dimethylpyrimidin-2-yl)-2,3,4,9-tetrahydro-1H-carbazol-1-amine hydrochloride] | 12 nM | –
N#Cc1ccc(NC2CCCc3c2[nH]c2ccc(Br)cc32)nc1 (stereo not drawn) [Example 35, 6-[(6-Bromo-2,3,4,9-tetrahydro-1H-carbazol-1-yl)amino]nicotinonitrile] | – | 30 nM
Clc1ccc(NC2CCCc3c2[nH]c2ccc(Br)cc32)cc1 (stereo not drawn) [Example 20, 6-Bromo-N-(4-chlorophenyl)-2,3,4,9-tetrahydro-1H-carbazol-1-amine] | – | < 10 nM
FC(F)(F)c1ccc2[nH]c3c(c2c1)CCCC3Nc1ccccc1 (stereo not drawn) [Example 43, N-Phenyl-6-(trifluoromethyl)-2,3,4,9-tetrahydro-1H-carbazol-1-amine hydrochloride] | 51 nM | –
COc1cc(OC)nc(NC2CCCc3c2[nH]c2ccc(Cl)cc32)n1 (stereo not drawn) [Example 24, 6-Chloro-N-(4,6-dimethoxypyrimidin-2-yl)-2,3,4,9-tetrahydro-1H-carbazol-1-amine] | – | 30 nM
Cc1ccc(NC2CCCc3c2[nH]c2ccc(Cl)cc32)cc1 (stereo not drawn) [Example 18, 6-Chloro-N-(4-methylphenyl)-2,3,4,9-tetrahydro-1H-carbazol-1-amine] | – | 19 nM
Clc1ccc2[nH]c3c(c2c1)CCCC3Nc1ccccc1 (stereo not drawn) [Example 14, 6-Chloro-N-phenyl-2,3,4,9-tetrahydro-1H-carbazol-1-amine] | – | < 10 nM
COc1ccc(NC2CCCc3c2[nH]c2ccc(Cl)cc32)cc1 (stereo not drawn) [Example 15, 6-Chloro-N-(4-methoxyphenyl)-2,3,4,9-tetrahydro-1H-carbazol-1-amine] | – | 10 nM
Clc1ccc2[nH]c3c(c2c1)CCCC3Nc1ncccn1 (stereo not drawn) [Example 23, 6-Chloro-N-pyrimidin-2-yl-2,3,4,9-tetrahydro-1H-carbazol-1-amine] | – | 44 nM
Brc1ccc2[nH]c3c(c2c1)CCCC3Nc1ccccn1 (stereo not drawn) [Example 27, 6-Bromo-N-pyridin-2-yl-2,3,4,9-tetrahydro-1H-carbazol-1-amine hydrochloride] | 37 nM | –
Clc1ccccc1NC1CCCc2c1[nH]c1ccc(Br)cc21 (stereo not drawn) [Example 49, 6-Bromo-N-(2-chlorophenyl)-2,3,4,9-tetrahydro-1H-carbazol-1-amine] | – | < 10 nM
Brc1ccc2[nH]c3c(c2c1)CCCC3Nc1nc2ccccc2s1 (stereo not drawn) [Example 36, N-(1,3-Benzothiazol-2-yl)-6-bromo-2,3,4,9-tetrahydro-1H-carbazol-1-amine] | – | 72 nM
Brc1ccc2[nH]c3c(c2c1)CCCC3Nc1ncccn1 (stereo not drawn) [Example 22, 6-Bromo-N-pyrimidin-2-yl-2,3,4,9-tetrahydro-1H-carbazol-1-amine hydrochloride] | 97 nM | –
Fc1cccc(NC2CCCc3c2[nH]c2ccc(Br)cc32)c1 (stereo not drawn) [Example 46, 6-Bromo-N-(3-fluorophenyl)-2,3,4,9-tetrahydro-1H-carbazol-1-amine] | – | < 10 nM
FC(F)(F)c1ccc(NC2CCCc3c2[nH]c2ccc(Br)cc32)nc1 (stereo not drawn) [Example 34, 6-Bromo-N-[5-(trifluoromethyl)pyridin-2-yl]-2,3,4,9-tetrahydro-1H-carbazol-1-amine] | – | < 10 nM
Fc1ccc(NC2CCCc3c2[nH]c2ccc(Br)cc32)cc1 (stereo not drawn) [Example 21, 6-Bromo-N-(4-fluorophenyl)-2,3,4,9-tetrahydro-1H-carbazol-1-amine] | – | < 10 nM
c1cnc(NC2CCCc3c2[nH]c2ccccc32)nc1 (stereo not drawn) [Example 37, N-Pyrimidin-2-yl-2,3,4,9-tetrahydro-1H-carbazol-1-amine] | – | 4500 nM

SMILES | IC50 [1] | IC50 [2]
Cc1ccc2[nH]c3c(c2c1)CCCC3Nc1ncccn1 (stereo not drawn) [Example 29, 6-Methyl-N-pyrimidin-2-yl-2,3,4,9-tetrahydro-1H-carbazol-1-amine] | – | 252 nM
Clc1ccc(NC2CCCc3c2[nH]c2ccc(Br)cc32)cc1Cl (stereo not drawn) [Example 51, 6-Bromo-N-(3,4-dichlorophenyl)-2,3,4,9-tetrahydro-1H-carbazol-1-amine] | – | 22 nM
Cc1cc(C)nc(NC2CCCc3c2[nH]c2ccc(Cl)cc32)n1 (stereo not drawn) [Example 26, 6-Chloro-N-(4,6-dimethylpyrimidin-2-yl)-2,3,4,9-tetrahydro-1H-carbazol-1-amine] | – | 62 nM
COc1ccccc1NC1CCCc2c1[nH]c1ccc(Br)cc21 (stereo not drawn) [Example 48, 6-Bromo-N-(2-methoxyphenyl)-2,3,4,9-tetrahydro-1H-carbazol-1-amine] | – | 57 nM
Clc1ccc(NC2CCCc3c2[nH]c2ccc(Cl)cc32)cc1 (stereo not drawn) [Example 16, 6-Chloro-N-(4-chlorophenyl)-2,3,4,9-tetrahydro-1H-carbazol-1-amine] | – | 14 nM
Brc1ccc2[nH]c3c(c2c1)CCCC3Nc1ccc2[nH]ccc2c1 (stereo not drawn) [Example 47, 6-Bromo-N-(1H-indol-5-yl)-2,3,4,9-tetrahydro-1H-carbazol-1-amine] | – | 112 nM
Cc1ccnc(NC2CCCc3c2[nH]c2ccc(Cl)cc32)n1 (stereo not drawn) [Example 25, 6-Chloro-N-(4-methylpyrimidin-2-yl)-2,3,4,9-tetrahydro-1H-carbazol-1-amine] | – | 35 nM
CCCc1cnc(NC2CCCc3c2[nH]c2ccc(Br)cc32)nc1 (stereo not drawn) [Example 28, 6-Bromo-N-(5-propylpyrimidin-2-yl)-2,3,4,9-tetrahydro-1H-carbazol-1-amine] | – | 15 nM
Brc1ccc2[nH]c3c(c2c1)CCCC3Nc1ccccc1 (stereo not drawn) [Example 13, 6-Bromo-N-phenyl-2,3,4,9-tetrahydro-1H-carbazol-1-amine] | – | 10 nM
FC(F)(F)c1cnc(NC2CCCc3c2[nH]c2ccc(Br)cc32)nc1 (stereo not drawn) [Example 33, 6-Bromo-N-[5-(trifluoromethyl)pyrimidin-2-yl]-2,3,4,9-tetrahydro-1H-carbazol-1-amine] | – | 44 nM
COc1ccc(NC2CCCc3c2[nH]c2ccc(Br)cc32)cc1 (stereo not drawn) [Example 19, 6-Bromo-N-(4-methoxyphenyl)-2,3,4,9-tetrahydro-1H-carbazol-1-amine] | – | < 10 nM
Fc1ccccc1NC1CCCc2c1[nH]c1ccc(Br)cc21 (stereo not drawn) [Example 50, 6-Bromo-N-(2-fluorophenyl)-2,3,4,9-tetrahydro-1H-carbazol-1-amine] | – | 70 nM
Brc1ccc2[nH]c3c(c2c1)CCCCC3Nc1ncccn1 (stereo not drawn) [Example 38, 2-Bromo-N-pyrimidin-2-yl-5,6,7,8,9,10-hexahydrocyclohepta[b]indol-6-amine] | – | < 10 nM
COc1cccc(NC2CCCc3c2[nH]c2ccc(Br)cc32)c1 (stereo not drawn) [Example 45, 6-Bromo-N-(3-methoxyphenyl)-2,3,4,9-tetrahydro-1H-carbazol-1-amine] | – | < 10 nM
Fc1ccc(NC2CCCc3c2[nH]c2ccc(Cl)cc32)cc1 (stereo not drawn) [Example 17, 6-Chloro-N-(4-fluorophenyl)-2,3,4,9-tetrahydro-1H-carbazol-1-amine] | – | 23 nM
COc1cc(OC)nc(NC2CCCc3c2[nH]c2ccc(C)cc32)n1 (stereo not drawn) [Example 31, N-(4,6-Dimethoxypyrimidin-2-yl)-6-methyl-2,3,4,9-tetrahydro-1H-carbazol-1-amine hydrochloride] | 70 nM | –
